From patent US8158789B2, “Arginine derivatives with NP-I antagonistic activity” (Ark Therapeutics Group Ltd., priority 2006, dated 2012) come the findings set out here.

pIC50: −log10 of the molar value.

This assay deals with T1, neuropilin-1 (NP-1) (Homo sapiens, UniProt O14786).
T1 construct: expressed in transfected cells; host or cells: porcine aortic endothelial cells (PAE/NP-1), hygromycin B selection
T1 sequence (O14786 22-923): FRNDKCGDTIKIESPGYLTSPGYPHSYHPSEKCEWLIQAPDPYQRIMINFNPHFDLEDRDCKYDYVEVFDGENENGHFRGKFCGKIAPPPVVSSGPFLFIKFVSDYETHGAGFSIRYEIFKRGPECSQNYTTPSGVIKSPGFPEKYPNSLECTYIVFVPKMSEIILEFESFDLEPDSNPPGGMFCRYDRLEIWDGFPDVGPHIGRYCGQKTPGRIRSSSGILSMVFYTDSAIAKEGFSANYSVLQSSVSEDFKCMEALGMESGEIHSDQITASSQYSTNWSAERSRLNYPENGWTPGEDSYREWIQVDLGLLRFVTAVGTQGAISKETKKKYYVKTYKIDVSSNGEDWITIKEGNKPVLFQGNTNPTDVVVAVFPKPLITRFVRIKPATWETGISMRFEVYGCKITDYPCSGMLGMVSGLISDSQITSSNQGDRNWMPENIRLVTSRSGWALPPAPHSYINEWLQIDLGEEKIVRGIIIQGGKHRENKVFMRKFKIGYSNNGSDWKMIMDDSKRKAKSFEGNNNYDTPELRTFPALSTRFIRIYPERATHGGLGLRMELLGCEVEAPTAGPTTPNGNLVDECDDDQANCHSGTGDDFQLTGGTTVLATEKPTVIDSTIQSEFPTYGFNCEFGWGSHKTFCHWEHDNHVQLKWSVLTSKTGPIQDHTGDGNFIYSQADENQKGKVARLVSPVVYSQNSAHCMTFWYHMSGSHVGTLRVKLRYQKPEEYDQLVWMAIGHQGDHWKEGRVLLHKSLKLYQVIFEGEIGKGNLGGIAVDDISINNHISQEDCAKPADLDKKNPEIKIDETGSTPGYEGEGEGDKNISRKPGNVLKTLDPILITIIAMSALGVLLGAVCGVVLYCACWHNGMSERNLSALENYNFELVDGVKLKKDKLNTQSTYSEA
Kind of assay: 125I-VEGF-A165 binding. The settings on record: assay not given; 125I-VEGF-A165 binding is the only concentration-response binding method described. As for the experimental part:
Porcine aortic endothelial cells expressing neuropilin-1 (PAE/NP-1) were cultured in Ham's F12 medium containing 10% fetal bovine serum (FBS) and 25 μg/ml hygromycin B. PAE cells expressing KDR (PAE/KDR) were grown in Ham's F12 medium containing 10% FBS and 250 μg/ml […] G418. Human carcinoma cell lines (DU145, A549 and ACHN) were grown in RPMI 1640 medium containing 10% FBS and L-glutamine.
Confluent cells in 24-well plates were washed twice with phosphate-buffered saline (PBS). At 4° C. various concentrations of peptides or peptidomimetics diluted in binding medium (Dulbecco's modified Eagle's medium, 25 mM HEPES pH 7.3 containing 0.1% BSA) were added, followed by addition of 0.1 nM of ^125I-VEGF-A165 (1200-1800 Ci/mmol, GE Healthcare). After 2 h of incubation at 4° C., the medium was aspirated and washed 4 times with cold PBS. The cells were lysed with 0.25 M NaOH, 0.5% SDS solution, and the bound radioactivity of the lysates was measured in a γ counter. Non-specific binding was determined in the presence of 100-fold excess unlabelled VEGF-A165.
By pIC50 is commonly meant −log10 of the IC50, conventionally taken in molar units. A low value points to a large IC50. The molecule `N=C(N)NCCC[C@H](NC(=O)c1sccc1NS(=O)(=O)c1cccc(N)c1)C(=O)O` [EG00174, (S)-2-{[3-(3-Amino-benzenesulfonylamino)-thiophene-2-carbonyl]-amino}-5-guanidino-pentanoic acid] had a negative-log IC50 (pIC50) of more than 4.70. As for `CC(=O)Nc1ccc(S(=O)(=O)Nc2ccsc2C(=O)N[C@@H](CCCNC(=N)N)C(=O)O)cc1` [EG00203, (S)-2-{[3-(4-Acetylamino-benzenesulfonylamino)-thiophene-2-carbonyl]-amino}-5-guanidino-pentanoic acid], the pIC50 is more than 4.70. To `N=C(N)NCCC[C@H](NC(=O)c1sccc1NS(=O)(=O)c1ccccc1[N+](=O)[O-])C(=O)O` [EG00224, (S)-5-Guanidino-2-{[3-(2-nitro-benzenesulfonylamino)-thiophene-2-carbonyl]-amino}-pentanoic acid] belongs more than 4.70; to `N=C(N)NCCC[C@H](NC(=O)c1sccc1NS(=O)(=O)c1ccccc1N)C(=O)O` [EG00225, (S)-2-{[3-(2-Amino-benzenesulfonylamino)-thiophene-2-carbonyl]-amino}-5-guanidino-pentanoic acid], more than 4.70; to `Cc1ccc2nsnc2c1S(=O)(=O)Nc1ccsc1C(=O)N[C@@H](CCCNC(=N)N)C(=O)O` [EG00264, (S)-2-{[3-(5-Methyl-benzo[1,2,5]thiadiazole-5-methyl-4-sulfonylamino)-thiophene-2-carbonyl]-amino}-5-guanidino-pentanoic acid], more than 4.70. Turning to `Cc1nc(S(=O)(=O)Nc2ccsc2C(=O)N[C@@H](CCCNC(=N)N)C(=O)O)cn1C` [EG00265, (S)-2-{[3-(1,2-Dimethyl-1H-imidazole-4-sulfonylamino)-thiophene-2-carbonyl]-amino}-5-guanidino-pentanoic acid], the negative-log IC50 (pIC50) was more than 4.70. Next, `N=C(N)NCCC[C@H](NC(=O)c1sccc1NS(=O)(=O)c1cccc(C#CCN)c1)C(=O)O` [EG00274, (S)-2-({3-[3-(3-Amino-prop-1-ynyl)-benzenesulfonylamino]-thiophene-2-carbonyl}-amino)-5-guanidino-pentanoic acid]: more than 4.70; `Cc1nn(C)c(Cl)c1CNc1cccc(S(=O)(=O)Nc2ccsc2C(=O)N[C@@H](CCCNC(=N)N)C(=O)O)c1` [EG00280, (S)-2-[(3-{3-[(5-Chloro-1,3-dimethyl-1H-pyrazol-4-ylmethyl)-amino]-benzenesulfonylamino}-thiophene-2-carbonyl)-amino]-5-guanidino-pentanoic acid]: more than 4.70. Next, `N=C(N)NCCC[C@H](NC(=O)c1sccc1NS(=O)(=O)c1cccc(NCc2ccccn2)c1)C(=O)O` [EG00283, (S)-5-Guanidino-2-[(3-{3-[(pyridin-2-ylmethyl)-amino]-benzenesulfonylamino}-thiophene-2-carbonyl)-amino]-pentanoic acid]: more than 4.70; `N=C(N)NC(=O)CC[C@H](NC(=O)c1sccc1NS(=O)(=O)c1ccccc1[N+](=O)[O-])C(=O)O` [EG00285, (S)-5-Guanidino-2-{[3-(2-nitro-benzenesulfonylamino)-thiophene-2-carbonyl]-amino}-5-oxo-pentanoic acid]: more than 4.70.

`N=C(N)NCCC[C@H](NC(=O)c1sccc1NS(=O)(=O)c1cc2ccccc2o1)C(=O)O` [EG00287, (S)-2-{[3-(Benzofuran-2-sulfonylamino)-thiophene-2-carbonyl]-amino}-5-guanidino-pentanoic acid]: the pIC50 is more than 4.70. For the molecule `N=C(N)NCCC[C@H](NC(=O)c1sccc1NS(=O)(=O)c1cccc2nonc12)C(=O)O` [EG00288, (S)-2-{[3-(Benzo[1,2,5]oxadiazole-4-sulfonylamino)-thiophene-2-carbonyl]-amino}-5-guanidino-pentanoic acid], the negative-log IC50 (pIC50) was more than 4.70.

In the case of `N=C(N)NCCC[C@H](NC(=O)c1sccc1NS(=O)(=O)c1cc2ccccc2s1)C(=O)O` [EG00291, (S)-2-{[3-(Benzo[b]thiophene-2-sulfonylamino)-thiophene-2-carbonyl]-amino}-5-guanidino-pentanoic acid], the negative logarithm of the IC50 (pIC50) was more than 4.70.

As to `N=C(N)NCCC[C@H](NC(=O)c1sccc1NS(=O)(=O)c1cc(Br)cc2c1OCC2)C(=O)O` [EG00299, (S)-2-{[3-(5-Bromo-2,3-dihydro-benzofuran-7-sulfonylamino)-thiophene-2-carbonyl]-amino}-5-guanidino-pentanoic acid], the pIC50 was more than 4.70.

As to `Cc1cc(CNc2cccc(S(=O)(=O)Nc3ccsc3C(=O)N[C@@H](CCCNC(=N)N)C(=O)O)c2)n(C)n1` [EG00316, (S)-2-[(3-{3-[(2,5-Dimethyl-2H-pyrazol-3-ylmethyl)-amino]-benzenesulfonyl-amino}-thiophene-2-carbonyl)-amino]-5-guanidino-pentanoic acid], the pIC50 is more than 4.70. The molecule `Cc1noc(C)c1CNc1cccc(S(=O)(=O)Nc2ccsc2C(=O)N[C@@H](CCCNC(=N)N)C(=O)O)c1` [EG00317, (S)-2-[(3-{3-[(3,5-Dimethyl-isoxazol-4-ylmethyl)-amino]-benzenesulfonyl-amino}-thiophene-2-carbonyl)-amino]-5-guanidino-pentanoic acid] had a negative logarithm of the IC50 (pIC50) of more than 4.70. On to `Cc1nn(-c2ccccc2)c(Cl)c1CNc1cccc(S(=O)(=O)Nc2ccsc2C(=O)N[C@@H](CCCNC(=N)N)C(=O)O)c1` [EG00318, (S)-2-[(3-{3-[(5-Chloro-3-methyl-1-phenyl-1H-pyrazol-4-ylmethyl)-amino]-benzenesulfonylamino]-thiophene-2-carbonyl)-amino]-5-guanidino-pentanoic acid], for which the pIC50 was more than 4.70. To `Cn1nc(CNc2cccc(S(=O)(=O)Nc3ccsc3C(=O)N[C@@H](CCCNC(=N)N)C(=O)O)c2)c2ccccc21` [EG00319, (S)-5-Guanidino-2-[(3-{3-[(1-methyl-1H-indazol-3-ylmethyl)-amino]-benzenesulfonylamino}-thiophene-2-carbonyl)-amino]-pentanoic acid] belongs more than 4.70.

In turn, `N=C(N)NCCC[C@H](NC(=O)c1sccc1NS(=O)(=O)c1cccc(CCc2cccnc2)c1)C(=O)O` [EG00323, (S)-5-Guanidino-2-({3-[3-(2-pyridin-3-yl-ethyl)-benzenesulfonylamino]-thiophene-2-carbonyl}-amino)-pentanoic acid] gave a pIC50 of more than 4.70. Take `Cc1nc(CNc2cccc(S(=O)(=O)Nc3ccsc3C(=O)N[C@@H](CCCNC(=N)N)C(=O)O)c2)c(C)o1` [EG00332, (S)-2-[(3-{3-[(2,5-Dimethyl-oxazol-4-ylmethyl)-amino]-benzenesulfonylamino}-thiophene-2-carbonyl)-amino]-5-guanidino-pentanoic acid]: the pIC50 is more than 4.70. For `Cc1noc(C)c1-c1cccc(S(=O)(=O)Nc2ccsc2C(=O)N[C@@H](CCCNC(=N)N)C(=O)O)c1` [EG00350, (S)-2-({3-[3-(3,5-Dimethyl-isoxazol-4-yl)-benzenesulfonylamino]-thiophene-2-carbonyl}-amino)-5-guanidino-pentanoic acid], the pIC50 was more than 4.70. In turn, `N=C(N)NCCC[C@H](NC(=O)c1sccc1NS(=O)(=O)c1cccc(CCCN)c1)C(=O)O` [EG00369, (S)-2-({3-[3-(3-Amino-propyl)-benzenesulfonylamino]-thiophene-2-carbonyl}-amino)-5-guanidino-pentanoic acid] had a negative-log IC50 (pIC50) of more than 4.70.

`Cc1noc(C)c1-c1cc2c(c(S(=O)(=O)Nc3ccsc3C(=O)N[C@@H](CCCNC(=N)N)C(=O)O)c1)OCC2` [EG00428, (S)-2-({3-[5-(3,5-Dimethyl-isoxazol-4-yl)-2,3-dihydro-benzofuran-7-sulfonyl-amino]-thiophene-2-carbonyl}-amino)-5-guanidino-pentanoic acid] had a negative-log IC50 (pIC50) of more than 4.70.

Consider `CN1CCOc2cc(-c3cc4c(c(S(=O)(=O)Nc5ccsc5C(=O)N[C@@H](CCCNC(=N)N)C(=O)O)c3)OCC4)cnc21` [EG00475, (S)-5-Guanidino-2-({3-[5-(4-methyl-3,4-dihydro-2H-pyrido[3,2-b][1,4]oxazin-7-yl)-2,3-dihydro-benzofuran-7-sulfonylamino]-thiophene-2-carbonyl}-amino)-pentanoic acid], for which the pIC50 is more than 4.70.
